Values joined by “and” are separate entries in the source; they are usually repeats but may differ in a detail not shown here. Equal entries are not always repeated.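 Briefly, cells in 96-well plates were exposed to five compound concentrations for 48 h, and endpoints were estimated by linear interpolation. At the GI50, growth is halved. The concentration for full growth arrest is given as TGI.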
Experiments:
Test in all cases: DTP human tumour cell line panel, 48 h
NCI-H23 lung = system: NCI-H23 lung
SK-MEL-5 melanoma = system: SK-MEL-5 melanoma
OVCAR-8 ovarian = system: OVCAR-8 ovarian
CCRF-CEM leukemia = system: CCRF-CEM leukemia
COLO 205 colon = system: COLO 205 colon
T-47D breast = system: T-47D breast
SN12C renal = system: SN12C renal
MDA-MB-435 = system: MDA-MB-435
SNB-19 CNS = system: SNB-19 CNS
ACHN renal = system: ACHN renal

Row | SMILES | GI50 (NCI-H23 lung) | TGI (NCI-H23 lung) | GI50 (SK-MEL-5 melanoma) | TGI (SK-MEL-5 melanoma) | GI50 (OVCAR-8 ovarian) | TGI (OVCAR-8 ovarian) | GI50 (CCRF-CEM leukemia) | TGI (CCRF-CEM leukemia) | GI50 (COLO 205 colon) | TGI (COLO 205 colon) | GI50 (T-47D breast) | TGI (T-47D breast) | GI50 (SN12C renal) | TGI (SN12C renal) | GI50 (MDA-MB-435) | TGI (MDA-MB-435) [µM] | GI50 (SNB-19 CNS) | TGI (SNB-19 CNS) | GI50 (ACHN renal) | TGI (ACHN renal)
1 | CC(C)(CO)N=Cc1ccccc1[O-].CC(C)(CO)N=Cc1ccccc1[O-].[Co+2] | 72.7 µM | > 100 µM | 42.5 µM | > 100 µM | > 100 µM | > 100 µM | 5.86 µM | 68.2 µM | 55.9 µM | > 100 µM | 10.1 µM | > 100 µM | > 96.6 µM | > 100 µM | 38.4 µM | > 100 | > 100 µM | > 100 µM | > 81.4 µM | > 100 µM
2 | CCCCCCCCCCCCCCCCS(=O)(=O)c1ccc(NN)cc1 | – | > 10 µM | – | > 10 µM | – | > 10 µM | – | 4.34 µM | – | > 10 µM | – | > 10 µM | – | > 10 µM | – | > 10 | – | > 10 µM | – | > 10 µM
3 | CC(=O)Oc1ccc(C2(c3ccc(OC(C)=O)cc3)C(=O)Nc3ccccc32)cc1 | 9.3 µM and 19.3 µM | > 100 µM | 24.6 µM and 36.1 µM | > 100 µM | 0.292 µM and 0.408 µM | > 100 µM | 25.7 µM and 28.6 µM | > 100 µM and 99.3 µM | 0.0741 µM and 0.155 µM | 11.9 µM and 29.8 µM | 0.031 µM and 0.0327 µM | 0.112 µM and 0.129 µM | 0.202 µM and 0.283 µM | > 68.3 µM | 30.6 µM and 29.8 µM | > 100 | 42.9 µM and > 61.1 µM | > 100 µM | 18.9 µM and 30.6 µM | > 100 µM
4 | Fc1cc(-c2nnc3n2N=C(c2ccc(Cl)cc2Cl)CS3)c(Cl)cc1Cl | 82.5 µM | > 100 µM | 26.1 µM | 65.1 µM | 57.3 µM | > 100 µM | 27.6 µM | > 100 µM | 32.9 µM | > 100 µM | 11.7 µM | 48.5 µM | 56.4 µM | > 100 µM | 24.5 µM | 75.9 | 25.4 µM | > 100 µM | 66.6 µM | > 100 µM
5 | COc1ccc(C2ONC3=NCCN32)cc1 (stereo unspecified) | > 100 µM | > 100 µM | 53.3 µM | > 100 µM | 67.7 µM | > 100 µM | 26.6 µM | 61.7 µM | 45.9 µM | > 100 µM | 99.4 µM | > 100 µM | 52.8 µM | > 100 µM | > 100 µM | > 100 | > 100 µM | > 100 µM | 37.1 µM | > 100 µM
6 | O=C(O)C1C2C=CC(O2)C1C(=O)Nc1ncccn1 (stereo unspecified) | – | > 100 µM | – | > 100 µM | – | > 100 µM | – | > 100 µM | – | > 100 µM | – | > 100 µM | – | > 100 µM | – | > 100 | – | > 100 µM | – | > 100 µM
7 | CCCn1cnc2c(SCc3ccccc3)nc(N)nc21 | > 100 µM | > 100 µM | 21.2 µM | > 100 µM | 71.8 µM | > 100 µM | 72.9 µM | > 100 µM | > 100 µM | > 100 µM | 56.9 µM | > 100 µM | > 100 µM | > 100 µM | > 100 µM | > 100 | > 100 µM | > 100 µM | > 100 µM | > 100 µM
8 | O=c1oc2ccc(F)cc2c(=O)n1-c1ccc(Br)cc1F | 0.481 µM | – | 0.267 µM | 0.737 µM | 1.59 µM | > 100 µM | 2.72 µM | > 100 µM | 4.03 µM | 15.5 µM | 0.651 µM | 7.61 µM | 0.376 µM | 7.6 µM | 0.623 µM | 6.64 | 0.45 µM | > 80.8 µM | 0.59 µM | 13.6 µM
9 | C=CC(=O)Nc1cccc(Nc2nc(Nc3ccc(OCCOC(F)F)cc3)ncc2F)c1 | 6.99 µM | > 100 µM | 3.74 µM | 15.1 µM | 3.33 µM | 19.4 µM | 5.17 µM | 94 µM | 4.17 µM | 17.5 µM | 1.83 µM | 9.98 µM | 2.54 µM | 16.2 µM | 2.21 µM | 7.22 | 5.6 µM | > 100 µM | 1.35 µM | 10.4 µM
10 | Cn1cnc([N+](=O)[O-])c1Sc1nc(N)nc2nc[nH]c12 | 5.61 µM | > 100 µM | 3.89 µM | 22.4 µM | 3.68 µM | > 100 µM | 3.01 µM | > 100 µM | 15 µM | > 74.5 µM | 8.57 µM | > 100 µM | 6.7 µM | > 100 µM | 3.31 µM | > 100 | > 100 µM | > 100 µM | 10 µM | > 100 µM
11 | Cc1ccc(/C=C2\CNC/C(=C\c3ccc(C)cc3)C2=O)cc1 | – | 3.79 µM and 4.1 µM | 2.1 µM | 4.1 µM and 6.03 µM | 0.587 µM | 2.44 µM and 5.63 µM | 2.74 µM | 7.82 µM and 8.71 µM | 1.45 µM | 2.78 µM and 7.3 µM | – | > 24.8 µM | 1.77 µM | 3.24 µM and 6.25 µM | – | 19.9 | 1.93 µM | 4.78 µM and 15 µM | – | 3.81 µM and 5.93 µM
12 | COc1ccc2cc(-c3c(-c4ccncc4)nc(-c4ccc(S(C)=O)cc4C)n3C)ccc2c1 (stereo unspecified) | > 25 µM | > 25 µM | 7.58 µM | > 21.6 µM | 24.7 µM | > 25 µM | > 25 µM | > 25 µM | 14.8 µM | > 25 µM | 8.78 µM | > 25 µM | 15.7 µM | > 25 µM | 11.2 µM | > 25 | > 25 µM | > 25 µM | 13.2 µM | > 25 µM
13 | COc1ccc(/C=C(/C(=O)n2cnnn2)c2cc(OC)c(OC)c(OC)c2)cc1 | 5.54 µM | > 100 µM | 3.12 µM | 29.4 µM | 3.66 µM | > 100 µM | 3.44 µM | > 100 µM | 2.92 µM | 7.21 µM | > 100 µM | > 100 µM | 5.15 µM | > 100 µM | 0.614 µM | 3.24 | 4.25 µM | > 100 µM | 6.87 µM | > 100 µM
14 | Cc1cc(NC(=O)NC(=O)c2ccccc2N(C)C)ccc1Oc1ncc(Br)cn1 | 2.51 µM | 53.4 µM | – | 4.11 µM | 0.614 µM | > 68.1 µM | – | 3.5 µM and 11.8 µM | 0.266 µM | – | – | > 56.2 µM | 0.578 µM | > 100 µM | – | 2.84 | 0.749 µM | > 81.5 µM | 0.404 µM | > 68.1 µM
15 | O=C(O)C1C(C(=O)O)C2(Cl)C(Cl)=C(Cl)C1(Cl)C2(Cl)Cl.[Cd] (stereo unspecified) | 2.62 µM | 9.17 µM | 1.37 µM | 5.63 µM | 28.8 µM | > 86.6 µM | 16.5 µM | 61.4 µM | 20.5 µM | 38.6 µM | 11.4 µM | 28.1 µM | 18.4 µM | 36.1 µM | 7.61 µM | 25.2 | 40 µM | > 100 µM | 21.3 µM | 43.9 µM
16 | COc1ccc(/C=C/C(=O)C(C)(C)Br)cc1 | – | 6.04 µM | – | 31.4 µM | – | 11.5 µM | – | 5.22 µM | – | 29.5 µM | – | 76.2 µM | – | 19.6 µM | – | 34.3 | – | 88.7 µM | – | 25.7 µM
17 | COc1cc([C@H]2c3[nH]c4ccccc4c3C[C@H]3COC(=O)N32)cc(OC)c1O | – | 17.1 µM | – | 17.4 µM | – | 63.9 µM | – | 12.4 µM | – | 37.5 µM | – | > 100 µM | – | 59.7 µM | – | > 100 | – | > 100 µM | – | 28.5 µM
18 | CCOCNc1ccc(N2C(=O)/C(=C/c3ccc(N(CC)CC)cc3)N=C2c2ccccc2)cc1 | 27.3 µM | > 100 µM | 22.9 µM | > 100 µM | 10.8 µM | > 100 µM | 3.55 µM | > 100 µM | 86.6 µM | > 100 µM | 84 µM | > 100 µM | 16.6 µM | > 100 µM | 69.1 µM | > 100 | 7.57 µM | 55.3 µM | 17.5 µM | > 100 µM
19 | c1ccc(CC(NCCNC(Cc2ccccc2)c2ccccc2)c2ccccc2)cc1 (stereo unspecified) | 0.589 µM | 2.55 µM | 0.271 µM | 0.779 µM | – | – | 0.49 µM | 2.57 µM | 0.191 µM | 0.382 µM | 0.243 µM | 0.693 µM | 0.517 µM | 1.96 µM | 0.817 µM | 2.22 | 0.964 µM | 4.15 µM | 0.585 µM | 2.49 µM
20 | Cc1n(Cc2ccc3ccccc3c2)c(Cl)c(Cl)[n+]1Cc1ccc2ccccc2c1 | 1.66 µM | 3.86 µM | 1.69 µM | 3.08 µM | – | – | 1.96 µM | 6.05 µM | 1.65 µM | 3.8 µM | 2.05 µM | 6.44 µM | 1.62 µM | 3.03 µM | 1.68 µM | 3.19 | 1.57 µM | 2.96 µM | 2.59 µM | 8.07 µM

— PubChem BioAssay (NCI)
